{"source": "patent EP0406428B1", "about": "“PEPTIDE DERIVATIVES AND THEIR USE” (ASAHI GLASS COMPANY LTD., priority 1988, dated 1995)", "key": {"trypsin": {"tested_on": "trypsin", "assay": "Peptide map: decomposition with trypsin, HPLC analysis", "format": "in vitro ADME", "conditions": "Tris-HCl 100 mM pH 8.5, 37°C, 24 hours, compared with linear peptide (GRGDSPA)", "description": "Peptide was dissolved in 10 mg/mℓ of distilled water. 20 »l of this solution was diluted with addition of 180 »l of a buffer solution (Tris-HCl, 100 mM, pH 8.5). To this diluted solution, 5 »l of a trip solution (1 mg/mℓ […], CaCl₂ 10 mM) was added, and the mixture was kept at a temperature of 37°C for 24 hours. Then, 10 »l of 2N HCl was added to this mixed solution to complete the reaction. Out of this reaction liquid, 50 »l was provided for high performance liquid chromatography HPLC for its analysis. Condition for Analysis HP HPLC: Waters Model 510 Column: YMC-ODS Detection: A₂₁₄ Elution: Liquid A - 0.1% aqueous solution of TFA Liquid B - 0.1% acetonitrile solution of TFA Linear concentration gradient of: 0% B → 30% B (0 min.) (30 min.) Figure 1 is a graphical representation showing the result of analysis of the cyclic peptide synthesized in accordance with this Example. Also, the linear peptide (GRGDSPA) synthesized in accordance with (14) above was tested under the same conditions as mentioned above. The result of its analysis is shin in Figure 2."}, "blood platelet": {"tested_on": "blood platelet", "assay": "Decrease in number of blood platelet in surgical operation using artificial heart and lung", "format": "in vivo", "conditions": "surgical operations using artificial heart and lung; control PBS", "description": "The following Table indicates the results of examination of decrease in the number of the blood platelet, when 100 »g (per 1 kg of weight/minute) of [formula] was added for the purpose of the surgical operation. As the control, there was added PBS in place of peptide."}}, "note": "Residues, ends and D or L forms follow the SMILES beside them."}
{"smiles": "C[C@@H]1NC(=O)[C@@H]2CCCN2C(=O)[C@H](CO)NC(=O)[C@H](CC(=O)O)NC(=O)CNC(=O)[C@H](CCCNC(=N)N)NC(=O)CNC1=O", "note": "[Example 1] (cyclo(RGDSPAG))", "values": [{"measurement": "decomposition by treatment with trypsin", "setting": "trypsin", "value": "difficult to undergo further decomposition"}]}
{"smiles": "C[C@@H]1NC(=O)[C@@H]2CCCN2C(=O)[C@H](CO)NC(=O)[C@H](CC(=O)O)NC(=O)CNC(=O)[C@H](CCCNC(=N)N)NC(=O)CNC1=O", "note": "[Example I00042] (cyclo(RGDSPAG))", "values": [{"measurement": "inhibiting aggregation of blood platelet", "setting": "blood platelet", "value": "capability of inhibiting such aggregation at its low concentration"}]}
